Measurements from US20150125457A1, “BONE REPAIR PROMOTER” (DAIICHI SANKYO COMPANY, LIMITED, priority 2012, published 2015).
Bridges are numbered along the chain shown (N, C = ends). Where no end group is shown, it is not given here.

How the values were obtained:
[1] = system: rat closed femur fracture model; experiment: Rat closed femur fracture model, callus diameter; format: in vivo; settings: 0.5 mg/kg/day continuous s.c. for one week; 7 days after fracture; versus vehicle group; FIG. 5B
Description: (§1) In accordance with the method of Example 2, a rat closed fracture model was prepared. An administration solution was prepared so as to be a dosage corresponding to 0.5 mg/kg/day by using various NPR-B agonists (CNP derivative A, hCNP-53 (SEQ ID NO: 2), CNP derivative C (CNP-36, amino acid Nos. 18 to 53 of SEQ ID NO: 2), and CNP derivative D (Pro-Gly-CNP37, SEQ ID NO: 15)), and then loaded into an osmotic pump (Model 2001, Alzet). The osmotic pump was buried under the skin of the neck back of the animal retained in a supine position, and continuous subcutaneous administration was performed for one week. Vehicle was administered to the control group. 7 days after the preparation of the bone fracture, the animal was subjected to isoflurane inhalation anesthesia, retained in a supine position to open the abdomen, and then subjected to blood collection from the abdominal aorta. EDTA Na was added to the blood, then the EDTA Na-added blood was centrifuged and the plasma separated, and the resultant was cryopreserved. At a later date, the cGMP level in the plasma was measured by a RIA method using a kit (YSI-7702, YAMASA CORPORATION). After blood collection, the animal was bled for the euthanasia, and then the left femur was resected. Each maximum diameter of the sagittal plane and the coronal plane in the callus was measured, and the average value was used as a callus diameter. In accordance with the method of Example 3, the type X collagen gene expression level in the callus was measured. The measurement was performed for 12 cases in each group.

type X collagen gene = experiment: Rat closed femur fracture model, cartilage-related marker gene expression (real-time PCR); format: in vivo; settings: Example 4: 0.5 mg/kg/day continuous s.c. for one week; 7 days after fracture; versus vehicle group; FIG. 5C
Description: In accordance with the method of Example 2, a rat closed fracture model was prepared. For an animal in a Sham group, a pin only was inserted into the femur, and a bone fracture was not prepared. An administration solution of CNP derivative A was prepared so as to be a dosage corresponding to 0.5 mg/kg/day, and then loaded into an osmotic pump (model 2001, Alzet). The osmotic pump was buried under the skin of the neck back of the animal, and continuous subcutaneous administration was performed for one week. Vehicle was continuously subcutaneously administered to the control group. 7 days after the preparation of the bone fracture, the animal was subjected to isoflurane inhalation anesthesia, retained in a supine position to open the abdomen, and then bled for the euthanasia. The left femur was resected, and immersed into RNAlater (Life Technologies Corporation). The diaphysis or part of the callus was cut out from the femur that had been refrigerated in RNAlater for one day or more. To the cut-out diaphysis or part of the callus, QIAzol (QIAGEN) was added, and the resultant was crushed with tungsten beads. The total RNA was extracted by an RNeasy Mini Kit (QIAGEN), and 1st strand cDNA was synthesized by a SuperScript VILO cDNA Synthesis Kit (Life Technologies Corporation). The gene expression level was measured by a real-time PCR method using TaqMan Gene Expression Master Mix (Life Technologies Corporation). The measured value was standardized by the gene expression level of ubiquitin-C. The standardization was performed for 12 cases in each group.
as §1

NPR-B = molecular target: T1, NPR-B (Homo sapiens, UniProt P20594); settings: literature reports (Furuya et al. 1992; US 2010-305031); cited from earlier work
T1 sequence (P20594 23-1047): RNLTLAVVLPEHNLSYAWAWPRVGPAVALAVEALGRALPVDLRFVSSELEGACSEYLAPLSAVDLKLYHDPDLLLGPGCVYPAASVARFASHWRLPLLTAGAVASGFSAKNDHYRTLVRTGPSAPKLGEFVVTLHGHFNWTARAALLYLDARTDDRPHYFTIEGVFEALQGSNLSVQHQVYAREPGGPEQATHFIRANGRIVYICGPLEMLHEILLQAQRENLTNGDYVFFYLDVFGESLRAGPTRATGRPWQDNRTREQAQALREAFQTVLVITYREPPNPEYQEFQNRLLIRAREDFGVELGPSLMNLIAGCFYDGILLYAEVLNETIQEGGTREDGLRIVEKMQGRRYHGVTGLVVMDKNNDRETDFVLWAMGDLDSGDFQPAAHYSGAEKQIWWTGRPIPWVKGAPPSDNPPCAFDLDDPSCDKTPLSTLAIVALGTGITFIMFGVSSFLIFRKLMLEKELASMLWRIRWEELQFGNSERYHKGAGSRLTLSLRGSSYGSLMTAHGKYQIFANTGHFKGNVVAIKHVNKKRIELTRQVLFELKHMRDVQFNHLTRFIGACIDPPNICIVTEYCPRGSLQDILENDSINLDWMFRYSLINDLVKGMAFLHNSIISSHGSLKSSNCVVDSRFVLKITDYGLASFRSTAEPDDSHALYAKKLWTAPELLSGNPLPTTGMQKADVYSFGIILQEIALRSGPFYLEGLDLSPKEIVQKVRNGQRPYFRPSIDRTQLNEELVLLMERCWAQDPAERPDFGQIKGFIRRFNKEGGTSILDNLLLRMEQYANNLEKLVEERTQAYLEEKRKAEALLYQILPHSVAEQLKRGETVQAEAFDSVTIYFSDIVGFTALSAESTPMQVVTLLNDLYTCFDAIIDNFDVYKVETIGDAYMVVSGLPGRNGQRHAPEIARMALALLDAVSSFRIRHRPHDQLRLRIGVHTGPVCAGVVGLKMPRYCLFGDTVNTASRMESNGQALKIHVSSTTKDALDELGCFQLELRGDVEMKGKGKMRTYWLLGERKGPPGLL

Substance	Maximum diameter of the callus generated in the left femur [1]	Gene expression level of type X collagen in the callus (type X collagen gene)	NPR-B agonist activity compared with hCNP-22 (in words) (NPR-B)
CNP derivative D: Pro-Gly-CNP37, SEQ ID NO: 15; derivative described in WO 2009/067639 (PGQEHPNARKYKGANKKGLSKGCFGLKLDRIGSMSGLGC; CNP derivative D, which disclosed in Am. J. Hum. Gent.(2012), 91(6), 1108-1114)	significantly larger	significantly suppressed	–
CNP derivative C: hCNP-36, 17 consecutive amino acids from the N terminus of hCNP-53 deleted; amino acid Nos. 18 to 53 of SEQ ID NO: 2 (EHPNARKYKGANKKGLSKGCFGLKLDRIGSMSGLGC; mammalian)	significantly larger	significantly suppressed	–
hCNP-53: human-derived CNP-53, DLRVDTKSRAAWARLLQEHPNARKYKGANKKGLSKGCFGLKLDRIGSMSGLGC: SEQ ID NO: 2 (DLRVDTKSRAAWARLLQEHPNARKYKGANKKGLSKGCFGLKLDRIGSMSGLGC; mammalian) [reference compound]	significantly larger	suppressed	–
CNP6-22: peptide consisting of only the ring structure, amino acid Nos. 6 to 22 of SEQ ID NO: 1 (CFGLKLDRIGSMSGLGC; disulfide 1-17 (inferred))	–	–	almost the same NPR-B agonist activity as that of hCNP-22
